The source of these data is publication PMC7918738, “Microtubule Destabilizing Sulfonamides as an Alternative to Taxane-Based Chemotherapy” (International Journal of Molecular Sciences, 2021).

The structures appear in SMILES notation. Where only a bound is given, the exact number is not on record here.

The test system of experiment [1] is tubulin (microtubular protein isolated from calf brain). The experiment can be described thus: Tubulin Polymerization Inhibition (TPI) assay, turbidity. It counts as biochemical. The conditions noted are these: 1.5 mg/mL microtubular protein; for TPI % 10 µM: compound at 10 µM. The method, then: The effect of all the synthesized compounds on the in vitro tubulin polymerization was evaluated at 10 µM. All the compounds that inhibited polymerization more than 30% were also assayed at 20 µM. IC50 values were calculated for those compounds inhibiting tubulin polymerization by at least 50% at 20 µM (Table 1 and Supplemental Figure S2).
Microtubular protein was isolated from calf brain according to the modified Shelanski method by two cycles of temperature-dependent assembly/disassembly and stored at −80 °C. Before each use, protein concentration was determined by the Bradford method taking BSA as standard.
Tubulin polymerization was monitored using a Helios α spectrophotometer by measuring the increase in turbidity at 450 nm, caused by a shift from 4 °C to 37 °C, which allows the in vitro microtubular protein to depolymerize and polymerize, respectively. The assay was carried out in quartz cuvettes containing 1.5 mg/mL microtubular protein and the ligand (except for control cuvette with only DMSO at the same concentration) in a mixture of 0.1 M MES buffer, 1 mM EGTA, 1 mM MgCl2, 1 mM β-ME, and 1.5 mM GTP at pH 6.7 (final volume 500 µL). Cuvettes were preincubated at 20 °C for 30 min, to allow ligand binding to tubulin, and subsequently cooled on ice for 10 min. Then, the experiment starts at 4 °C to establish the initial baseline. The assembly process was initiated by a temperature shift to 37 °C and the turbidity produced by tubulin polymerization can be measured by an absorbance increase. After reaching a stable plateau, the temperature was switched back to 4 °C to return to the initial absorption values (to confirm the reversible nature of the monitored process and to determine whether or not the microtubular tubular protein has stabilized). The difference in amplitude between the stable plateau and the initial baseline of the curves was taken as the degree of tubulin polymerization for each experiment. Comparison with control curves under identical conditions but without ligands yielded TPI as a percentage value. All compounds were tested at 10 µM concentration. Compounds that inhibited tubulin polymerization by at least 30% at 10 µM were tested at 20 µM. IC50 values were calculated for compounds that inhibit tubulin polymerization by more than 50% at 20 µM. Compounds were dissolved in DMSO, and the final solvent concentration never exceeded 4% (v/v), which has been reported not to interfere with the assembly process. All the measurements were carried out in at least two independent experiments using microtubular protein from different preparations.

Experiment [2] has as its system MCF7 (breast adenocarcinoma). As to the kind of experiment: Antiproliferative activity against MCF7 (XTT colorimetric method). Format: cell-based. The conditions noted are these: Homo sapiens, 72 h treatment. The method, then: The in vitro antiproliferative activity of MDS at 1 µM after 72 h treatments was evaluated by a colorimetric method against the human tumor cell lines HeLa (cervix epithelioid carcinoma) and MCF7 (breast adenocarcinoma). Compounds showing more than 40% inhibition at 1 µM in at least three independent assays were evaluated in a range of concentrations between 0.1 nM and 10 µM for the determination of half-maximal inhibitory concentrations (IC50) (Table 1). Paclitaxel, CA-4, and ABT-751 were used as references.
MCF7 (human breast carcinoma), SKOV-3 (human ovarian carcinoma), OVCAR-3 (human ovarian carcinoma), OVCAR-8 (human ovarian carcinoma), and HeLa (human cervical carcinoma) cell lines were cultured in Dulbecco’s Modified Eagle’s Medium (DMEM) (Gibco, Thermo Fischer Scientific) containing 10% (v/v) heat-inactivated fetal bovine serum (HIFBS) (Lonza-Cambrex, Karlskoga, Sweden), 2 mM L-glutamine (Lonza-Cambrex, Karlskoga, Sweden), 100 μg/mL streptomycin, and 100 IU/mL penicillin (Lonza-Cambrex) at 37 °C in humidified 95% air and 5% CO2. HT-29 (human colon carcinoma), IGROV-1 (human ovarian carcinoma), and A2780 (human ovarian carcinoma) cell lines were cultured in RPMI 1640 medium (Gibco, Thermo Fischer Scientific) supplemented with 10% HIFBS, 100 μg/mL streptomycin, and 100 IU/mL penicillin at 37 °C in humidified 95% air and 5% CO2 atmosphere. The presence of mycoplasma was routinely checked with MycoAlert kit (Lonza-Cambrex) and only mycoplasma-free cells were used in the experiments. Ovarian tumor cell lines were originally acquired from Dr Atanasio Pandiella from Centro de Investigación del Cáncer (CIC), Salamanca, Spain. HeLa, HT-29 and MCF7 tumor cell lines were provided by Dr Faustino Mollinedo from Centro de Investigaciones Biológicas Margarita Salas, Madrid, Spain.
MCF7, HeLa, and HT-29 cell proliferation, when treated with the corresponding compounds, were determined using the XTT (sodium 3’-[1(phenylaminocarbonyl)-3,4-tetrazolium]-bis(4-methoxy-6-nitro)-benzenesulfonic acid hydrate) cell proliferation kit (Roche Molecular Biochemicals, Mannheim, Germany). A freshly prepared mixture of XTT labeling reagent with 0.02% (v/v) PMS (N-methyl-dibenzopyrazine methyl sulfate) electron coupling reagent was added to cells (50 µL/well in 96-well plates, total volume of 160 µL/well). Cells were incubated under standard culture conditions for 4 h (MCF7 and HeLa) or 6 h (HT-29). The absorbance of the formazan product generated was measured at 450 nm using a multi-well plate reader. SKOV-3, OVCAR-3, OVCAR-8, IGROV-1, A-2780 cell proliferation, when treated with the corresponding compound, were determined using MTT (3-(4,5-dimethylthiazol-2-yl)-2,5-diphenyl-2H-tetrazolium bromide) (Sigma-Aldrich, St. Louis, MO, USA). MTT in Phosphate Buffer Saline (PBS) (5 mg/ml) was added to cells (110 µL/well in 24-well plates, total volume of 1110 µL/well). After 1 hour of incubation, the medium was aspirated, and formazan violet crystals were dissolved in dimethyl sulfoxide (DMSO) (500 µL/well). Absorbance was measured at 570 nm in a plate reader (Ultra Evolution, Tecan, Männedorf, Suiza). To determine cell viability, cells in exponential growth phase were seeded (100 µL/well in 96-well plates and 1000 µL/well in 24-well plates) with appropriate cell line concentration (1.5·10^4 cells/mL for MCF7 and HeLa, 3·10^4 cells/mL for HT-29, and 1·10^4 cells/mL for SKOV-3, OVCAR-3, OVCAR-8, IGROV-1, and A-2780) in complete RPMI 1640 or DMEM medium at 37°C and 5% CO2 atmosphere. After 24 h incubation, to allow cells to attach to the plates, all compounds were added at 1 µM concentration and the effect on the proliferation was evaluated 72 h post-treatment. Compounds showing antiproliferative effects at tested concentration were selected for IC50 calculation (50% inhibitory concentration with respect to the untreated controls) from 10^−5 to 10^−10 M concentration. Non-linear curves fitting the experimental data were carried out for each compound. […]
A general note: Tetrazolium assays rely on reduction of a dye to a coloured formazan, in cell work by metabolically active cells.

In the case of `COc1cc(N(C)S(=O)(=O)c2ccc(N)cc2)cc(OC)c1OC` [Compound 27], in experiment [1], the IC50 (usually the concentration that inhibits the measured activity by half) was more than 20 µM and the “TPI % 10 µM” value was 0%. Also, the IC50 in experiment [2] is more than 1 µM.

As for `COc1cc(NS(=O)(=O)c2ccc(N(C)C)cc2)cc(OC)c1OC` [Compound 28], in experiment [1], the IC50 was more than 20 µM and the “TPI % 10 µM” value was 0%. The IC50 in experiment [2] came to 0.173 µM.

Turning to `COc1cc(N(C)S(=O)(=O)c2ccc(N(C)C)cc2)cc(OC)c1OC` [Compound 29a], in experiment [1], the IC50 was more than 20 µM and the “TPI % 10 µM” value is listed as 40%. This compound also returned an IC50 in experiment [2] of 0.03 µM.

With `CCN(c1cc(OC)c(OC)c(OC)c1)S(=O)(=O)c1ccc(N(C)C)cc1` [Compound 30], in experiment [1], the IC50 was more than 20 µM and the “TPI % 10 µM” value is reported as 45%. The compound also had an IC50 in experiment [2] of 0.081 µM.

Turning to `COc1cc(N(C(C)=O)S(=O)(=O)c2ccc(N(C)C)cc2)cc(OC)c1OC` [Compound 31], in experiment [1], the IC50 turned out to be 14 µM and the “TPI % 10 µM” value is recorded as 38%. In experiment [2], this compound came in with an IC50 of 0.135 µM.

Turning to `COc1cc(N(CC#N)S(=O)(=O)c2ccc(N(C)C)cc2)cc(OC)c1OC` [Compound 32], in experiment [1], the IC50 is more than 20 µM and the “TPI % 10 µM” value is reported as 17%. Further, the IC50 in experiment [2] was 0.12 µM.

For `CCOC(=O)CN(c1cc(OC)c(OC)c(OC)c1)S(=O)(=O)c1ccc(N(C)C)cc1` [Compound 33], in experiment [1], the IC50 is more than 20 µM and the “TPI % 10 µM” value is on record as 14%. It took 0.091 µM to reach half-maximal inhibition in experiment [2] (IC50).

Regarding `COc1cc(N(CC(=O)O)S(=O)(=O)c2ccc(N(C)C)cc2)cc(OC)c1OC` [Compound 34], the IC50 in experiment [1] was more than 20 µM; in experiment [2] it was more than 1 µM. For the same compound, the “TPI % 10 µM” value in experiment [1] is 6%.

Consider `COc1cc(N(Cc2ccccc2)S(=O)(=O)c2ccc(N(C)C)cc2)cc(OC)c1OC` [Compound 35a], for which, in experiment [1], the IC50 worked out at 5.3 µM and the “TPI % 10 µM” value is 72%. The compound also came in with an IC50 in experiment [2] of 0.1 µM.

As to `COc1cc(N(C(=O)OCc2ccccc2)S(=O)(=O)c2ccc(N(C)C)cc2)cc(OC)c1OC` [Compound 35b], in experiment [1], the IC50 was more than 20 µM and the “TPI % 10 µM” value is 0%. The compound further registered an IC50 in experiment [2] of more than 1 µM.

Turning to `COc1cc(NS(=O)(=O)c2ccc(NC=O)cc2)cc(OC)c1OC` [Compound 36], in experiment [1], the IC50 was more than 20 µM and the “TPI % 10 µM” value came out at 0%. The same compound returned an IC50 in experiment [2] of more than 1 µM.

Turning to `CNc1ccc(S(=O)(=O)Nc2cc(OC)c(OC)c(OC)c2)cc1` [Compound 37], in experiment [1], the IC50 was more than 20 µM and the “TPI % 10 µM” value is recorded as 7%. Moreover, the IC50 in experiment [2] is more than 1 µM.

Regarding `CNc1ccc(S(=O)(=O)N(C)c2cc(OC)c(OC)c(OC)c2)cc1` [Compound 38], the IC50 was found to be 10 µM in experiment [1] and 0.061 µM in experiment [2]. The “TPI % 10 µM” value in experiment [1] came to 47%.

`COc1ccc(S(=O)(=O)Nc2cc(OC)c(OC)c(OC)c2)cc1[N+](=O)[O-]` [Compound 40]: the values for the IC50 in experiment [1] and in experiment [2] were more than 20 µM and more than 1 µM, respectively. Besides, in experiment [1], the “TPI % 10 µM” value worked out at 0%.

For `COc1ccc(S(=O)(=O)Nc2cc(OC)c(OC)c(OC)c2)cc1N` [Compound 41], the IC50 in experiment [1] was more than 20 µM; in experiment [2], 0.096 µM. For the same compound, the “TPI % 10 µM” value in experiment [1] is 15%.

For the compound `COc1ccc(S(=O)(=O)N(C)c2cc(OC)c(OC)c(OC)c2)cc1N` [Compound 42], the IC50 in experiment [1] was determined as 12 µM; in experiment [2] it was 0.026 µM. Further, the “TPI % 10 µM” value in experiment [1] was 41%.

For `CCN(c1cc(OC)c(OC)c(OC)c1)S(=O)(=O)c1ccc(OC)c(N)c1` [Compound 43], the IC50 was more than 20 µM in experiment [1] and 0.014 µM in experiment [2]. The “TPI % 10 µM” value in experiment [1] is on record as 37%.

As for `COc1ccc(S(=O)(=O)N(CC#N)c2cc(OC)c(OC)c(OC)c2)cc1N` [Compound 44], in experiment [1], the IC50 was more than 20 µM and the “TPI % 10 µM” value was 5%. The same compound yielded an IC50 in experiment [2] of 0.008 µM.

Turning to `COc1ccc(S(=O)(=O)N(Cc2ccccc2)c2cc(OC)c(OC)c(OC)c2)cc1N` [Compound 45], in experiment [1], the IC50 is 3.7 µM and the “TPI % 10 µM” value is listed as 75%. In addition, the IC50 in experiment [2] worked out at 0.048 µM.

`CCOC(=O)CNc1cc(S(=O)(=O)N(C)c2cc(OC)c(OC)c(OC)c2)ccc1OC` [Compound 46]: in experiment [1], the IC50 is more than 20 µM and the “TPI % 10 µM” value is on record as 13%. In experiment [2], this compound yielded an IC50 of 0.048 µM.

With `CCOC(=O)CNc1cc(S(=O)(=O)N(CC(=O)OCC)c2cc(OC)c(OC)c(OC)c2)ccc1OC` [Compound 47], the IC50 was more than 20 µM in experiment [1] and more than 1 µM in experiment [2]. The “TPI % 10 µM” value in experiment [1] is 0%.

As to `CNc1cc(S(=O)(=O)N(C)c2cc(OC)c(OC)c(OC)c2)ccc1OC` [Compound 48a], in experiment [1], the IC50 was more than 20 µM and the “TPI % 10 µM” value turned out to be 2%. This compound also registered an IC50 in experiment [2] of 1.19 µM.

As to `COc1ccc(S(=O)(=O)N(C)c2cc(OC)c(OC)c(OC)c2)cc1N(C)C` [Compound 48b], the IC50 in experiment [1] was more than 20 µM; in experiment [2] it was more than 1 µM. The “TPI % 10 µM” value in experiment [1] is 0%.
